# Experimental data taken from patent publication US20230391760A1, “HETEROCYCLIC GLP-1 AGONISTS” (Gasherbrum Bio, Inc., priority 2020, published 2023).
# Target: GLP-1 Receptor (Homo sapiens, UniProt P43220)
# Assay: GLP-1R agonist cAMP stimulation assay (HEK293/GLP1R/CRE-LUC cells, cAMP dynamic 2 Kit)
# Assay type: cell-based
# Conditions: HEK293/CRE-Luc cell line stably expressing the GLP-1 Receptor, 30 min at 37° C.
# Outline: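 HEK293 cells stably expressing human GLP-1R with CRE-luciferase, 1000 cells/well in DPBS with 0.5 mM IBMX and 0.1% BSA, treated with compound in 1/2-log serial dilution for 30 min at 37 °C. cAMP then detected by HTRF (cAMP-d2 plus anti-cAMP cryptate), 1 h at room temperature in the dark.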
# Chain of GLP-1 Receptor (P43220 24-463, species assumed): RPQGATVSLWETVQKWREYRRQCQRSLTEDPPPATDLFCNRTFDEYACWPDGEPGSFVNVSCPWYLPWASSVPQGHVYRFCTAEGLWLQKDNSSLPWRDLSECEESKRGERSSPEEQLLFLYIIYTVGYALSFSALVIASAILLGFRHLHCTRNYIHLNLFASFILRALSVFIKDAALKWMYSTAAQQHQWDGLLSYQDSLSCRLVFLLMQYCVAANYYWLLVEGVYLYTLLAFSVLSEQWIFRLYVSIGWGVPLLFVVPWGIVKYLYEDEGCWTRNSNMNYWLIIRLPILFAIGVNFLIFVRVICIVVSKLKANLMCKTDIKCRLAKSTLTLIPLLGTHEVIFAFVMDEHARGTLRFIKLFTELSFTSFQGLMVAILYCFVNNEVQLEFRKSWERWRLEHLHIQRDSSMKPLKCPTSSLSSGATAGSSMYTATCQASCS
row,SMILES,EC50 [nM]
1,"C[C@]1(c2ccc(Cl)cc2F)Oc2cccc(C3CCN(Cc4nc5cc(-c6noc(=O)[nH]6)cnc5n4C[C@@H]4CCOC4)CC3)c2O1 [Compound 398a, 3-[2-({4-[(2S)-2-(4-chloro-2-fluorophenyl)-2-methyl-2H-1,3-benzodioxol-4-yl]piperidin-1-yl}methyl)-3-{[(3S)-oxolan-3-yl]methyl}-3H-imidazo[4,5-b]pyridin-6-yl]-4,5-dihydro-1,2,4-oxadiazol-5-one]",4.3
2,"N#Cc1ccc(COc2cc(C3=CCN(Cc4nc5cc(-c6noc(=O)[nH]6)cnc5n4C[C@@H]4CCO4)CC3)ccc2F)c(F)c1 [Compound 295a, 3-fluoro-4-[(2-fluoro-5-{1-[(3-{[(2S)-oxetan-2-yl]methyl}-6-(5-oxo-4,5-dihydro-1,2,4-oxadiazol-3-yl)-3H-imidazo[4,5-b]pyridin-2-yl)methyl]-1,2,3,6-tetrahydropyridin-4-yl}phenoxy)methyl]benzonitrile]",2.6
3,"O=C(Nc1ccc2c(c1)nc(CN1CCC(c3cccc(OCc4ccc(Cl)cc4F)n3)CC1)n2C[C@@H]1CCO1)C1CC(F)(F)C1 [Compound 152a, N-{2-[(4-{6-[(4-chloro-2-fluorophenyl)methoxy]pyridin-2-yl}piperidin-1-yl)methyl]-1-{[(2S)-oxetan-2-yl]methyl}-1H-1,3-benzodiazol-5-yl}-3,3-difluorocyclobutane-1-carboxamide]",0.88
4,"N#Cc1ccc(COc2cc(C3CCN(Cc4nc5cc(-c6nnc(C(F)(F)F)[nH]6)nnc5n4C[C@@H]4CCO4)CC3)ccc2F)c(F)c1 [Compound 521a, 3-fluoro-4-[(2-fluoro-5-{1-[(7-{[(2S)-oxetan-2-yl]methyl}-3-[5-(trifluoromethyl)-4H-1,2,4-triazol-3-yl]-7H-imidazo[4,5-c]pyridazin-6-yl)methyl]piperidin-4-yl}phenoxy)methyl]benzonitrile]",0.51
5,"O=C(O)c1c[nH]nc1-c1ccc2c(c1)nc(CN1CCC(c3cccc(OCc4ccc(Cl)cc4F)n3)CC1)n2C[C@@H]1CCO1 [Compound 214a, 3-{2-[(4-{6-[(4-chloro-2-fluorophenyl)methoxy]pyridin-2-yl}piperidin-1-yl)methyl]-1-{[(2S)-oxetan-2-yl]methyl}-1H-1,3-benzodiazol-5-yl}-1H-pyrazole-4-carboxylic acid]",4.2
6,"Fc1cc(Cl)ccc1COc1cccc(C2CCN(Cc3nc4cc(-c5ccn[nH]5)ccc4n3C[C@@H]3CCO3)CC2)n1 [Compound 215a, 2-[(4-{6-[(4-chloro-2-fluorophenyl)methoxy]pyridin-2-yl}piperidin-1-yl)methyl]-1-{[(2S)-oxetan-2-yl]methyl}-5-(1H-pyrazol-5-yl)-1H-1,3-benzodiazole]",2.7
7,"Fc1cc(Cl)ccc1COc1cc(C2=CCN(Cc3nc4cc(-c5nnc(C(F)(F)F)[nH]5)cnc4n3C[C@@H]3CCO3)CC2)ccc1F [Compound 294a, 4-{3-[(4-chloro-2-fluorophenyl)methoxy]-4-fluorophenyl}-1-[(3-{[(2S)-oxetan-2-yl]methyl}-6-[5-(trifluoromethyl)-4H-1,2,4-triazol-3-yl]-3H-imidazo[4,5-b]pyridin-2-yl)methyl]-1,2,3,6-tetrahydropyridine]",0.47
8,"O=C(Cc1ccccc1)Nc1ccc2c(c1)nc(CN1CCC(c3cccc(OCc4ccc(Cl)cc4F)n3)CC1)n2C[C@@H]1CCO1 [Compound 130a, N-{2-[(4-{6-[(4-chloro-2-fluorophenyl)methoxy]pyridin-2-yl}piperidin-1-yl)methyl]-1-{[(2S)-oxetan-2-yl]methyl}-1H-1,3-benzodiazol-5-yl}-2-phenylacetamide]",5.1
9,"Fc1cc(Cl)ccc1COc1cccc(C2=CCN(Cc3nc4cc(-c5nnc(C(F)(F)F)[nH]5)ncc4n3C[C@@H]3CCO3)CC2)c1 [Compound 307a, 4-{3-[(4-chloro-2-fluorophenyl)methoxy]phenyl}-1-[(3-{[(2S)-oxetan-2-yl]methyl}-6-[5-(trifluoromethyl)-4H-1,2,4-triazol-3-yl]-3H-imidazo[4,5-c]pyridin-2-yl)methyl]-1,2,3,6-tetrahydropyridine]",0.26
10,"CC(=O)Nc1ccc2c(c1)nc(CN1CCC(c3cccc(OCc4ccc(Cl)cc4F)n3)CC1)n2C[C@@H]1CCO1 [Compound 101a, (S)—N-(2-((4-(6-((4-chloro-2-fluorobenzyl)oxy)pyridin-2-yl)piperidin-1-yl)methyl)-1-(oxetan-2-ylmethyl)-1H-benzo[d]imidazol-5-yl)acetamide]",1.09

# Now those with a lower EC50, led by results:
row,EC50 [nM],SMILES
1,0.11,"CC1(c2ccc(C#N)cn2)Oc2cccc(C3CCN(Cc4nc5cc(-c6nnc(C(F)(F)F)[nH]6)ccc5n4C[C@@H]4CCO4)CC3)c2O1 (stereo partly drawn) [Compound 354a, 6-(2-methyl-4-{1-[(1-{[(2S)-oxetan-2-yl]methyl}-5-[5-(trifluoromethyl)-4H-1,2,4-triazol-3-yl]-1H-1,3-benzodiazol-2-yl)methyl]piperidin-4-yl}-2H-1,3-benzodioxol-2-yl)pyridine-3-carbonitrile]"
2,0.04,"CC1(c2ccc(Cl)cc2F)Oc2cccc(C3CCN(Cc4nc5cc(-c6nnc(C(F)(F)F)[nH]6)ccc5n4C[C@@H]4CCO4)CC3)c2O1 (single isomer, unassigned) [Compound 229c]"
3,0.19,"CC1(c2ccc(Cl)cc2F)Oc2cccc(C3CCN(Cc4nc5cc(-c6cn(CCO)nn6)ccc5n4C[C@@H]4CCO4)CC3)c2O1 (stereo partly drawn) [Compound 228a, 2-{4-[2-({4-[2-(4-chloro-2-fluorophenyl)-2-methyl-2H-1,3-benzodioxol-4-yl]piperidin-1-yl}methyl)-1-{[(2S)-oxetan-2-yl]methyl}-1H-1,3-benzodiazol-5-yl]-1H-1,2,3-triazol-1-yl}ethan-1-ol]"
4,0.063,"Fc1cc(Cl)ccc1COc1ncccc1C1CCN(Cc2nc3cc(-c4nnc(C(F)(F)F)[nH]4)ccc3n2C[C@@H]2CCO2)CC1 [Compound 393a, 2-[(4-{2-[(4-chloro-2-fluorophenyl)methoxy]pyridin-3-yl}piperidin-1-yl)methyl]-1-{[(2S)-oxetan-2-yl]methyl}-5-[5-(trifluoromethyl)-4H-1,2,4-triazol-3-yl]-1H-1,3-benzodiazole]"
5,0.013,"CC1(c2ccc(Cl)cc2F)Oc2cccc(C3CCN(Cc4nc5cc(-c6nnn[nH]6)ncc5n4C[C@@H]4CCO4)CC3)c2O1 (stereo partly drawn) [Compound 218a, 4-[2-(4-chloro-2-fluorophenyl)-2-methyl-2H-1,3-benzodioxol-4-yl]-1-[(3-{[(2S)-oxetan-2-yl]methyl}-6-(1H-1,2,3,4-tetrazol-5-yl)-3H-imidazo[4,5-c]pyridin-2-yl)methyl]piperidine]"
6,0.045,"Fc1cc(Cl)ccc1COc1nccc(C2CCN(Cc3nc4cc(-c5nnc(C(F)(F)F)[nH]5)ncc4n3C[C@@H]3CCO3)CC2)n1 [Compound 505a, 2-[(4-chloro-2-fluorophenyl)methoxy]-4-{1-[(3-{[(2S)-oxetan-2-yl]methyl}-6-[5-(trifluoromethyl)-4H-1,2,4-triazol-3-yl]-3H-imidazo[4,5-c]pyridin-2-yl)methyl]piperidin-4-yl}pyrimidine]"
7,0.093,"CO[C@H](C)Cn1c(CN2CCC(c3cccc4c3O[C@@](C)(c3ccc(Cl)cc3F)O4)CC2)nc2cc(-c3nnc(C(F)(F)F)[nH]3)cnc21 [Compound 247b, 4-[(2S)-2-(4-chloro-2-fluorophenyl)-2-methyl-2H-1,3-benzodioxol-4-yl]-1-({3-[(2R)-2-methoxypropyl]-6-[5-(trifluoromethyl)-4H-1,2,4-triazol-3-yl]-3H-imidazo[4,5-b]pyridin-2-yl}methyl)piperidine]"
